Usually IC50 stands for the point on the concentration scale where inhibition reaches its midpoint.

For the test, the target named is ATX (human His-tagged) (Homo sapiens (Human), UniProt Q13822). In words: Human ATX enzyme inhibition assay (fluorescence quenching, MR121 substrate). The test is classed as biochemical. The following applies: 30 nM ATX, 1 μM MR121 substrate, 30° C., pH 8.0. In short, it runs like this:
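Fluorescence-quenching assay using MR121 substrate at 1 μM final, incubated 15 min at 30 °C. Buffer was 50 mM Tris-HCl pH 8.0 with 140 mM NaCl, 5 mM KCl, 1 mM CaCl2, 1 mM MgCl2 and 0.01% Triton X-100.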
On to `CC(C)c1cc(C#N)ccc1OCC(=O)N1CC[C@@H]2CN(C(=O)c3ccc4[nH]nnc4c3)C[C@@H]2CC1` [Example 1.43, 4-[2-[(3aS,8aR)-2-(1H-benzotriazole-5-carbonyl)-1,3,3a,4,5,7,8,8a-octahydropyrrolo[3,4-d]azepin-6-yl]-2-oxoethoxy]-3-propan-2-ylbenzonitrile], for which half-maximal inhibition (IC50) required 14 nM. With `O=C(CCc1ccc(OCC(F)(F)F)cc1F)N1CC[C@@H]2CN(C(=O)c3ccc4[nH]nnc4c3)C[C@@H]2CC1` [Example 1.45, 1-[(3aS,8aR)-2-(1H-benzotriazole-5-carbonyl)-1,3,3a,4,5,7,8,8a-octahydropyrrolo[3,4-d]azepin-6-yl]-3-[2-fluoro-4-(2,2,2-trifluoroethoxy)phenyl]propan-1-one], the IC50 was 7 nM. `O=C(OCc1ccc(OCC(F)(F)F)c(F)c1)N1CC[C@@H]2CN(C(=O)c3ccc4[nH]nnc4c3)C[C@@H]2CC1` [Example 1.46, (3aS,8aR)-2-(1H-benzotriazole-5-carbonyl)-octahydro-pyrrolo[3,4-d]azepine-6-carboxylic acid 3-fluoro-4-(2,2,2-trifluoro-ethoxy)-benzyl ester] displayed a half-maximal inhibitory concentration (IC50) of 2 nM. Under `O=C(OCc1ccc(OCC(F)(F)F)cc1F)N1CC[C@@H]2CN(C(=O)c3ccc4[nH]nnc4c3)C[C@@H]2CC1` [Example 1.47, (3aS,8aR)-2-(1H-benzotriazole-5-carbonyl)-octahydro-pyrrolo[3,4-d]azepine-6-carboxylic acid 2-fluoro-4-(2,2,2-trifluoro-ethoxy)-benzyl ester] stands 2 nM; under `O=C(OCc1ccc(OCC(F)(F)F)cc1)N1CC[C@@H]2CN(C(=O)c3ccc4[nH]nnc4c3)C[C@@H]2CC1` [Example 1.48, (3aS,8aR)-2-(1H-benzotriazole-5-carbonyl)-octahydro-pyrrolo[3,4-d]azepine-6-carboxylic acid 4-(2,2,2-trifluoro-ethoxy)-benzyl ester], 7.5 nM.

`O=C(OCc1ccc(OC(F)(F)F)cc1)N1C[C@@H]2CN(C(=O)c3cnc4[nH]nnc4c3)C[C@H]2C1` [Example 1.49, (3aS,6aS)-5-(3H-[1,2,3]triazolo[4,5-b]pyridine-6-carbonyl)-hexahydro-pyrrolo[3,4-c]pyrrole-2-carboxylic acid 4-trifluoromethoxy-benzyl ester] had an IC50 of 218 nM.

Compound `O=C(CCc1ccc(OC(F)(F)F)cc1)N1C[C@@H]2CN(C(=O)c3ccc4[nH]nnc4n3)C[C@H]2C1` [Example 1.50, 1-[(3aR,6aR)-5-(1H-triazolo[4,5-b]pyridine-5-carbonyl)-1,3,3a,4,6,6a-hexahydropyrrolo[3,4-c]pyrrol-2-yl]-3-[4-(trifluoromethoxy)phenyl]propan-1-one] registered an IC50 of 17 nM.

Compound `O=C(OCc1ccc(OC(F)(F)F)cc1)N1C[C@@H]2CN(C(=O)c3cc4nn[nH]c4cn3)C[C@H]2C1` [Example 1.51, (3aS,6aS)-5-(3H-[1,2,3]triazolo[4,5-c]pyridine-6-carbonyl)-hexahydro-pyrrolo[3,4-c]pyrrole-2-carboxylic acid 4-trifluoromethoxy-benzyl ester] registered an IC50 of 41 nM.

For the compound `O=C(OCc1ccc(OC(F)(F)F)cc1)N1C[C@@H]2CN(C(=O)c3ccc4[nH]nnc4c3F)C[C@H]2C1` [Example 1.52, (3aS,6aS)-5-(4-fluoro-1H-benzotriazole-5-carbonyl)-hexahydro-pyrrolo[3,4-c]pyrrole-2-carboxylic acid 4-trifluoromethoxy-benzyl ester], the IC50 came to 16 nM. The result for `O=C(OCc1ccc(OC(F)(F)F)cc1)N1C[C@@H]2CN(C(=O)c3cc(F)c4[nH]nnc4c3)C[C@H]2C1` [Example 1.53, (3aS,6aS)-5-(7-fluoro-1H-benzotriazole-5-carbonyl)-hexahydro-pyrrolo[3,4-c]pyrrole-2-carboxylic acid 4-trifluoromethoxy-benzyl ester] reads 52 nM. Under `O=C(OCc1ccc(OC(F)(F)F)cc1)N1C[C@@H]2CN(C(=O)c3cc4nn[nH]c4cc3F)C[C@H]2C1` [Example 1.54, (3aS,6aS)-5-(6-fluoro-1H-benzotriazole-5-carbonyl)-hexahydro-pyrrolo[3,4-c]pyrrole-2-carboxylic acid 4-trifluoromethoxy-benzyl ester] stands 22 nM; under `O=C(OCc1ccc(OC(F)(F)F)cc1)N1C[C@@H]2CN(C(=O)c3ccc4[nH]nnc4c3Cl)C[C@H]2C1` [Example 1.55, (3aS,6aS)-5-(4-chloro-1H-benzotriazole-5-carbonyl)-hexahydro-pyrrolo[3,4-c]pyrrole-2-carboxylic acid 4-trifluoromethoxy-benzyl ester], 14 nM. As to `O=C(CCc1ccc(OC(F)(F)F)cc1)N1C[C@@H]2CN(C(=O)c3ccc4[nH]nnc4c3F)C[C@H]2C1` [Example 1.59, 1-[(3aR,6aR)-5-(4-fluoro-1H-benzotriazole-5-carbonyl)-hexahydro-pyrrolo[3,4-c]pyrrol-2-yl]-3-(4-trifluoromethoxy-phenyl)-propan-1-one], the IC50 was 6 nM. Regarding `CCOc1cc(C(=O)N2C[C@@H]3CN(C(=O)[C@@H]4CCc5[nH]nnc5C4)C[C@H]3C2)nc2ccccc12` [Example 1.60, (4-ethoxyquinolin-2-yl)((3aS,6aS)-5-((R)-4,5,6,7-tetrahydro-1H-benzo[d][1,2,3]triazole-5-carbonyl)hexahydropyrrolo[3,4-c]pyrrol-2(1H)-yl)methanone], the IC50 was found to be 12 nM. The result for `CCOc1cc(C(=O)N2C[C@@H]3CN(C(=O)c4ccc5[nH]nnc5c4F)C[C@H]3C2)nc2ccccc12` [Example 1.61, (4-ethoxyquinolin-2-yl)((3aS,6aS)-5-(4-fluoro-1H-benzo[d][1,2,3]triazole-5-carbonyl)hexahydropyrrolo[3,4-c]pyrrol-2(1H)-yl)methanone] reads 21 nM. The result for `O=C(OCc1cc(Cl)cc(Cl)c1)N1C[C@@H]2CN(C(=O)c3ccc4[nH]c(=O)oc4c3)C[C@@H]2C1` [Example 2.01, (3aR,6aS)-3,5-dichlorobenzyl 5-(2-oxo-2,3-dihydrobenzo[d]oxazole-6-carbonyl)hexahydropyrrolo[3,4-c]pyrrole-2(1H)-carboxylate] reads 5 nM; that for `O=C(/C=C/c1ccc(OC(F)(F)F)cc1)N1CC[C@@H]2CN(C(=O)c3ccc4[nH]c(=O)oc4c3)C[C@@H]2CC1` [Example 2.02, 6-{(3aS,8aR)-6-[(E)-3-(4-trifluoromethoxy-phenyl)-acryloyl]-octahydro-pyrrolo[3,4-d]azepine-2-carbonyl}-3H-benzooxazol-2-one], 6 nM. For `O=C(CCc1ccc(OC(F)(F)F)cc1)N1C[C@@H]2CN(C(=O)c3ccc4[nH]c(=O)oc4c3)C[C@H]2C1` [Example 2.03, 6-[(3aR,6aR)-2-[3-[4-(trifluoromethoxy)phenyl]propanoyl]-1,3,3a,4,6,6a-hexahydropyrrolo[3,4-c]pyrrole-5-carbonyl]-3H-1,3-benzoxazol-2-one], the IC50 was 5 nM.

Regarding `O=C(OCc1ccc(OC(F)(F)F)cc1)N1C[C@@H]2CN(C(=O)c3ccc4[nH]c(=O)oc4c3)C[C@H]2C1` [Example 2.04, (3aS,6aS)-5-(2-oxo-2,3-dihydro-benzooxazole-6-carbonyl)-hexahydro-pyrrolo[3,4-c]pyrrole-2-carboxylic acid 4-trifluoromethoxy-benzyl ester], half-maximal inhibition (IC50) was put at 8 nM.

The compound `O=C(OCc1cc(Cl)cc(Cl)c1)N1C[C@H]2C[C@H](Oc3ccc4[nH]c(=O)oc4c3)C[C@H]2C1` [Example 3, (3aR,5s,6aS)-3,5-Dichlorobenzyl 5-(2-oxo-2,3-dihydrobenzo[d]oxazol-6-yloxy)hexahydrocyclopenta[c]pyrrole-2(1H)-carboxylate] returned a half-inhibitory concentration (IC50) of 36 nM. Under `O=C(OCc1cc(Cl)cc(Cl)c1)N1C[C@H]2C[C@@H](Oc3ccc4[nH]c(=O)oc4c3)C[C@H]2C1` [Example 3.01, (3aR,5r,6aS)-3,5-Dichlorobenzyl 5-(2-oxo-2,3-dihydrobenzo[d]oxazol-6-yloxy)hexahydrocyclopenta[c]pyrrole-2(1H)-carboxylate] stands 1090 nM; under `O=C(OCc1cc(Cl)cc(Cl)c1)N1C[C@@H]2CN(C(=O)c3ccc4[nH]nnc4c3)C[C@H]2C1` [Example 4, (3aS,6aS)-3,5-Dichlorobenzyl 5-(1H-benzo[d][1,2,3]triazole-5-carbonyl)hexahydro-pyrrolo[3,4-c]pyrrole-2(1H)-carboxylate], 8 nM.

`O=C(OCc1cc(Cl)cc(Cl)c1)N1C[C@H]2CN(C(=O)c3ccc4[nH]nnc4c3)C[C@@H]2C1` [Example 4.02, (3aR,6aR)-3,5-dichlorobenzyl 5-(1H-benzo[d][1,2,3]triazole-5-carbonyl)hexahydropyrrolo[3,4-c]pyrrole-2(1H)-carboxylate]: the IC50 was 11 nM. Under `CS(=O)(=O)c1cc(Cl)cc(COC(=O)N2C[C@@H]3CN(C(=O)c4ccc5[nH]nnc5c4)C[C@H]3C2)c1` [Example 4.03, (3aS,6aS)-5-(1H-benzotriazole-5-carbonyl)-hexahydro-pyrrolo[3,4-c]pyrrole-2-carboxylic acid 3-chloro-5-methanesulfonyl-benzyl ester] stands 11 nM; under `CS(=O)(=O)c1cc(Cl)cc(COC(=O)N2C[C@@H]3CN(C(=O)c4ccc5[nH]nnc5c4)C[C@@H]3C2)c1` [Example 4.04, (3aS,6aR)-5-(1H-benzotriazole-5-carbonyl)-hexahydro-pyrrolo[3,4-c]pyrrole-2-carboxylic acid 3-chloro-5-methanesulfonyl-benzyl ester], 46 nM.

For the compound `CS(=O)(=O)c1cc(COC(=O)N2CC[C@@H]3CN(C(=O)c4ccc5[nH]nnc5c4)C[C@@H]3CC2)cc(C(F)(F)F)c1` [Example 4.05, (3aS,8aR)-2-(1H-benzotriazole-5-carbonyl)-octahydro-pyrrolo[3,4-d]azepine-6-carboxylic acid 3-methanesulfonyl-5-trifluoromethyl-benzyl ester], the IC50 is 11 nM.

The values are drawn from patent US10669268B2, “Bicyclic derivatives” (Hoffmann-La Roche Inc., priority 2012, dated 2020).
